# Data from ChEMBL document CHEMBL2424636, “Synthesis and anticancer activity evaluation of new 1,2,3-triazole-4-carboxamide derivatives” (2013).
# Experiments:
# Assay type in all cases: functional
# SF-268 [1] = test: Cytotoxicity against human SF268 cells assessed as cell growth at 10^-5 M after 48 hrs by SRB assay; conditions: SF-268, 48 h, read-out: Activity
# OVCAR-8 = test: Cytotoxicity against human OVCAR8 cells assessed as cell growth at 10^-5 M after 48 hrs by SRB assay; conditions: OVCAR-8, 48 h, read-out: Activity
# HOP-62 = test: Cytotoxicity against human HOP62 cells assessed as cell growth at 10^-5 M after 48 hrs by SRB assay; conditions: HOP-62, 48 h, read-out: Activity
# SNB-75 [2] = test: Cytotoxicity against human SNB75 cells assessed as cell growth at 10^-5 M after 48 hrs by SRB assay; conditions: SNB-75, 48 h, read-out: Activity
# U-251 [3] = test: Cytotoxicity against human U251 cells assessed as cell growth at 10^-5 M after 48 hrs by SRB assay; conditions: U-251, 48 h, read-out: Activity
# UO-31 = test: Cytotoxicity against human UO31 cells assessed as cell growth at 10^-5 M after 48 hrs by SRB assay; conditions: UO-31, 48 h, read-out: Activity
# RPMI-8226 = test: Cytotoxicity against human RPMI8226 cells assessed as cell growth at 10^-5 M after 48 hrs by SRB assay; conditions: RPMI-8226, 48 h, read-out: Activity
# CCRF-CEM = test: Cytotoxicity against human CCRF-CEM cells assessed as cell growth at 10^-5 M after 48 hrs by SRB assay; conditions: read-out: Activity
# UACC-62 = test: Cytotoxicity against human UACC62 cells assessed as cell growth at 10^-5 M after 48 hrs by SRB assay; conditions: UACC-62, 48 h, read-out: Activity
# [4] = Cytotoxicity against human EKVX cells assessed as cell growth at 10^-5 M after 48 hrs by SRB assay; conditions: read-out: Activity
# T47D = test: Cytotoxicity against human T47D cells assessed as cell growth at 10^-5 M after 48 hrs by SRB assay; conditions: read-out: Activity
# SK-MEL-5 = test: Cytotoxicity against human SK-MEL-5 cells assessed as cell growth at 10^-5 M after 48 hrs by SRB assay; conditions: SK-MEL-5, 48 h, read-out: Activity
# SR [5] = test: Cytotoxicity against human SR cells assessed as cell growth at 10^-5 M after 48 hrs by SRB assay; conditions: read-out: Activity
# MOLT-4 = test: Cytotoxicity against human MOLT4 cells assessed as cell growth at 10^-5 M after 48 hrs by SRB assay; conditions: MOLT-4, 48 h, read-out: Activity
# PC-3 = test: Cytotoxicity against human PC3 cells assessed as cell growth at 10^-5 M after 48 hrs by SRB assay; conditions: PC-3, 48 h, read-out: Activity
# HOP-92 [6] = test: Cytotoxicity against human HOP92 cells assessed as cell growth at 10^-5 M after 48 hrs by SRB assay; conditions: HOP-92, 48 h, read-out: Activity
# Hs-578T = test: Cytotoxicity against human Hs578T cells after 48 hrs by SRB assay
# SF-268 [7] = test: Cytotoxicity against human SF268 cells after 48 hrs by SRB assay; conditions: SF-268, 48 h
# SF-539 [8] = test: Cytotoxicity against human SF539 cells after 48 hrs by SRB assay; conditions: SF-539, 48 h; for TGI: read-out: pTGI
# SF-295 = test: Cytotoxicity against human SF295 cells after 48 hrs by SRB assay; conditions: SF-295, 48 h
# SK-OV-3 = test: Cytotoxicity against human SKOV3 cells after 48 hrs by SRB assay; conditions: SK-OV-3, 48 h; for TGI: read-out: pTGI
# MDA-MB-231 = test: Cytotoxicity against human MDA-MB-231/ATCC cells after 48 hrs by SRB assay; conditions: MDA-MB-231, 48 h; for TGI: read-out: pTGI
# TK-10 = test: Cytotoxicity against human TK10 cells after 48 hrs by SRB assay; conditions: TK-10, 48 h; for TGI: read-out: pTGI
# U-251 [9] = test: Cytotoxicity against human U251 cells after 48 hrs by SRB assay; conditions: U-251, 48 h; for TGI: read-out: pTGI
# HOP-92 [10] = test: Cytotoxicity against human HOP92 cells after 48 hrs by SRB assay; conditions: HOP-92, 48 h
# OVCAR-4 = test: Cytotoxicity against human OVCAR4 cells after 48 hrs by SRB assay; conditions: OVCAR-4, 48 h
# RXF 393 [11] = test: Cytotoxicity against human RXF393 cells assessed as cell growth at 10^-5 M after 48 hrs by SRB assay; conditions: RXF 393, 48 h, read-out: Activity
# K562 = test: Cytotoxicity against human K562 cells after 48 hrs by SRB assay; conditions: K562, 48 h
# SNB-75 [12] = test: Cytotoxicity against human SNB75 cells after 48 hrs by SRB assay; conditions: SNB-75, 48 h; for TGI: read-out: pTGI (converted)
# SR [13] = test: Cytotoxicity against human SR cells after 48 hrs by SRB assay
# 786-0 = test: Cytotoxicity against human 786-0 cells assessed as cell growth at 10^-5 M after 48 hrs by SRB assay; conditions: 786-0, 48 h, read-out: Activity
# Malme-3M = test: Cytotoxicity against human MALME-3M cells after 48 hrs by SRB assay; conditions: for TGI: read-out: pTGI
# RXF 393 [14] = test: Cytotoxicity against human RXF393 cells after 48 hrs by SRB assay; conditions: RXF 393, 48 h; for TGI: read-out: pTGI (converted)
# MCF7 = test: Cytotoxicity against human MCF7 cells assessed as cell growth at 10^-5 M after 48 hrs by SRB assay; conditions: MCF7, 48 h, read-out: Activity
# SF-539 [15] = test: Cytotoxicity against human SF539 cells assessed as cell growth at 10^-5 M after 48 hrs by SRB assay; conditions: SF-539, 48 h, read-out: Activity
# A498 = test: Cytotoxicity against human A498 cells assessed as cell growth at 10^-5 M after 48 hrs by SRB assay; conditions: A498, 48 h, read-out: Activity
# MDA-MB-468 = test: Cytotoxicity against human MDA-MB-468 cells assessed as cell growth at 10^-5 M after 48 hrs by SRB assay; conditions: MDA-MB-468, 48 h, read-out: Activity
compound,measurement,setting,value
COc1ccccc1-n1nnc(C(=O)Nc2ncc(Cc3ccccc3)s2)c1C,growth at 10 µM,SF-268 [1],75.5%
same,growth at 10 µM,OVCAR-8,68%
same,growth at 10 µM,HOP-62,54.8%
same,growth at 10 µM,SNB-75 [2],53.9%
same,growth at 10 µM,U-251 [3],75.6%
same,growth at 10 µM,UO-31,73.3%
Cc1ccc(-n2nnc(C(=O)Nc3ncc(Cc4cccc(Cl)c4)s3)c2C)cc1,growth at 10 µM,RPMI-8226,62.7%
same,growth at 10 µM,CCRF-CEM,63.3%
same,growth at 10 µM,UACC-62,76.6%
same,growth at 10 µM,[4],74.9%
same,growth at 10 µM,UO-31,70.8%
Cc1ccccc1-n1nnc(C(=O)Nc2ccc(Cl)cc2Cl)c1N,growth at 10 µM,RPMI-8226,59.6%
same,growth at 10 µM,T47D,60.9%
same,growth at 10 µM,[4],56.7%
same,growth at 10 µM,SK-MEL-5,55.9%
Cc1ccc(-n2nnc(C(=O)NCc3ccccc3)c2N)cc1,growth at 10 µM,SR [5],68.2%
same,growth at 10 µM,MOLT-4,75.8%
COc1ccc(NC(=O)c2nnn(-c3ccc(C)cc3)c2N)cc1,growth at 10 µM,PC-3,74.3%
same,growth at 10 µM,HOP-92 [6],69.4%
Cc1ccc(-n2nnc(C(=O)Nc3cc(Cl)ccc3Cl)c2N)cc1,GI50,Hs-578T,4.47 µM
same,TGI,Hs-578T; read-out: pTGI,> 100 µM
same,GI50,SF-268 [7],5.5 µM
same,TGI,SF-268 [7]; read-out: pTGI,> 100 µM
same,GI50,SF-539 [8],4.27 µM
same,TGI,SF-539 [8],> 100 µM
same,GI50,SF-295,5.01 µM
same,TGI,SF-295; read-out: pTGI,> 100 µM
same,GI50,SK-OV-3,2.82 µM
same,TGI,SK-OV-3,> 100 µM
same,GI50,MDA-MB-231,6.17 µM
same,TGI,MDA-MB-231,> 100 µM
same,GI50,TK-10,5.89 µM
same,TGI,TK-10,> 100 µM
same,GI50,U-251 [9],6.03 µM
same,TGI,U-251 [9],> 100 µM
same,GI50,HOP-92 [10],0.589 µM
same,TGI,HOP-92 [10]; read-out: pTGI (converted),5.89 µM
same,GI50,OVCAR-4,1.62 µM
same,TGI,OVCAR-4; read-out: pTGI,> 100 µM
same,growth at 10 µM,HOP-92 [6],-3.42%
same,growth at 10 µM,RXF 393 [11],-13.4%
same,GI50,K562,7.76 µM
same,TGI,K562; read-out: pTGI,> 100 µM
same,GI50,SNB-75 [12],1.38 µM
same,TGI,SNB-75 [12],6.03 µM
same,GI50,SR [13],2.51 µM
same,TGI,SR [13]; read-out: pTGI (converted),60.3 µM
same,growth at 10 µM,786-0,2.96%
same,growth at 10 µM,SNB-75 [2],1.32%
same,GI50,Malme-3M,2.45 µM
same,TGI,Malme-3M,> 100 µM
same,growth at 10 µM,UO-31,-7.62%
same,GI50,RXF 393 [14],3.47 µM
same,TGI,RXF 393 [14],50.1 µM
CCc1nnc(NC(=O)c2nnn(-c3ccc(C)cc3)c2N)s1,growth at 10 µM,HOP-92 [6],71.5%
same,growth at 10 µM,SNB-75 [2],76.2%
same,growth at 10 µM,T47D,77.4%
Cc1cc(C)cc(-n2nnc(C(=O)NC(C)C)c2N)c1,growth at 10 µM,SR [5],83.6%
same,growth at 10 µM,MCF7,83.3%
same,growth at 10 µM,SF-539 [15],78.9%
Cc1cccc(C)c1NC(=O)c1nnn(-c2ccc(F)cc2)c1N,growth at 10 µM,SR [5],66.7%
same,growth at 10 µM,CCRF-CEM,64%
same,growth at 10 µM,HOP-92 [6],76.8%
same,growth at 10 µM,A498,78.7%
same,growth at 10 µM,[4],75.9%
COc1ccc(NC(=O)c2nnn(-c3ccc(F)cc3)c2N)c(OC)c1,GI50,SF-539 [8],17.8 µM
same,TGI,SF-539 [8],> 100 µM
same,GI50,SK-OV-3,13.8 µM
same,TGI,SK-OV-3,> 100 µM
same,GI50,MDA-MB-231,6.46 µM
same,TGI,MDA-MB-231,> 100 µM
same,GI50,TK-10,30.2 µM
same,TGI,TK-10,> 100 µM
same,GI50,U-251 [9],11.7 µM
same,TGI,U-251 [9],> 100 µM
same,GI50,SNB-75 [12],3.89 µM
same,TGI,SNB-75 [12],> 100 µM
same,growth at 10 µM,786-0,-1.64%
same,growth at 10 µM,SNB-75 [2],-27.3%
same,GI50,Malme-3M,12.9 µM
same,TGI,Malme-3M,> 100 µM
same,growth at 10 µM,U-251 [3],-9.89%
same,growth at 10 µM,T47D,-2.61%
same,growth at 10 µM,SF-539 [15],-4.64%
same,GI50,RXF 393 [14],37.2 µM
same,TGI,RXF 393 [14],> 100 µM
CCc1ccc(NC(=O)c2nnn(-c3ccc(OC)cc3)c2N)cc1,growth at 10 µM,RPMI-8226,60.9%
same,growth at 10 µM,MDA-MB-468,62.6%
same,growth at 10 µM,SK-MEL-5,56.3%
